The subject of one experiment is LjGpx3. Description: NADPH oxidation at […] nm, thioredoxin-coupled, steady state. It counts as biochemical, Lotus japonicus. Particulars: apparent Km, 20 μM poplar Trxh1, 1 μM A. thaliana NADPH-Trx reductase, 0.4 mM NADPH, 30 mM Tris-HCl pH 8.0, 1 mM EDTA.
The target in a further experiment is T1, LjGpx1 (Lotus japonicus, UniProt Q56VU1).
T1 sequence (Q56VU1 72-236): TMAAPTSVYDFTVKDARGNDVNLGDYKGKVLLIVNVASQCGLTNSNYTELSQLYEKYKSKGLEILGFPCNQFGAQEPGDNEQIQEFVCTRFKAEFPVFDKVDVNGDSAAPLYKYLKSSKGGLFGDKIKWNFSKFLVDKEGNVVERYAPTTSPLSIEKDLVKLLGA
The description is as above. It counts as biochemical. As to conditions: apparent Km; 20 μM poplar Trxh1, 1 μM A. thaliana NADPH-Trx reductase, 0.4 mM NADPH, 30 mM Tris-HCl pH 8.0, 1 mM EDTA; acyl chains of lipid not defined.

What is called Km is the substrate concentration at which the rate is half of its maximum. Turning to Phosphatidylcholine hydroperoxide, the Km came out at 1.6 µM in the experiment on LjGpx3 (acyl chains of lipid not defined) and 1600 nM on LjGpx1.

With `CC(C)(OO)c1ccccc1` [Cumene hydroperoxide], the Km in the experiment on LjGpx3 amounted to 214 µM.

Consider `CC(C)(C)OO` [t-Butyl hydroperoxide], for which, in the experiment with LjGpx3, the Km is 167 µM.

The values are drawn from paper PMC4423513, “Function of glutathione peroxidases in legume root nodules” (Journal of Experimental Botany, 2015).
